# Measured values: patent US7939292B2, “Modified heparinase III and methods of sequencing therewith” (Massachusetts Institute of Technology, priority 2000, dated 2011)
# Assays:
# Type in all cases: biochemical, Flavobacterium heparinum
# heparinase III [1] = target: T1, heparinase III (Pedobacter heparinus, UniProt Q59289); experiment: Substrate protection of heparinase III against DEPC inactivation; settings: 2 mg/mL heparan sulfate 30 min before 1.5 mM DEPC
# T1 construct: compared to the native heparinase III isolated directly from Flavobacterium heparinum; purchased IBEX Technologies (Montreal, Canada), received as a gift rather than bought; host or cells: Flavobacterium heparinum (natural producer)
# T1 sequence (Q59289 25-659): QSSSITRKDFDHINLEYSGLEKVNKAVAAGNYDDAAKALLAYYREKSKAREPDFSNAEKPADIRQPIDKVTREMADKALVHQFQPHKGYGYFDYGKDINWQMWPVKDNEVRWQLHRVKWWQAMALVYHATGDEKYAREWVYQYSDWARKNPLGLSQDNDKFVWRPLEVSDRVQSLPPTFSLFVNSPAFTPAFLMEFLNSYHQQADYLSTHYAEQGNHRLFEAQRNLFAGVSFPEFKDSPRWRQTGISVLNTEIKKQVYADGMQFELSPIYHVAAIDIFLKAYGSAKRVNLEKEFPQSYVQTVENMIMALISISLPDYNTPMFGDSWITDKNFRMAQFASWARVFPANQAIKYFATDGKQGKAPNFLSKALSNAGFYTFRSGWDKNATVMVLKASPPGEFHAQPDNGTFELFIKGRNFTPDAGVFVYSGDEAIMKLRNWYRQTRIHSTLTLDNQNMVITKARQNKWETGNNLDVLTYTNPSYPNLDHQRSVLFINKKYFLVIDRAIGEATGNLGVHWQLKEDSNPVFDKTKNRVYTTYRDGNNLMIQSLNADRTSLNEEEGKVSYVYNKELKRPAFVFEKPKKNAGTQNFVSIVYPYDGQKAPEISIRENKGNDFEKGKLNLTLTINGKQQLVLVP
# Method: (C) Substrate Protection of Heparinase III against DEPC Inactivation. Heparinase III (50 μg/mL) was pre-incubated with 2 mg/mL heparan sulfate in 50 mM sodium phosphate, pH 7.6 for 30 minutes prior to the addition of 1.5 mM DEPC. A control reaction with no prior incubation of substrate was also completed. The time course of inactivation for both was determined using the heparinase III activity assay.
# Substrate protection of heparinase III inactivation by DEPC was also assessed (FIG. 4). Heparinase III (50 μg/mL) was incubated with 2 mg/mL heparan sulfate for 30 min. 1.5 mM DEPC was added to the reaction and time course of inactivation was completed using the heparinase III activity assay (O). A control reaction without pre-incubation with heparan sulfate was also done (□).
# heparinase III [2] = target: T1, heparinase III; experiment: Quantification of histidines modified by DEPC (240 nm) with activity check
# Method: (D) Quantification of the Number of Histidines Modified by DEPC. The extent of modification of an enzyme by DEPC can be determined by monitoring the formation of the N-carbethoxylhistidyl adduct at 240 nm. At time zero, 1.5 mM DEPC was added to the cuvette containing heparinase III in sodium phosphate buffer, pH 7.0. The change in absorbance at 240 nm was monitored every minute for 10 min. The number of modified residues was determined using a molar extinction coefficient of 3,200 M^−1cm^−1 (Lundblad, R. (1995) Techniques in Protein Modification, CRC Press, Boca Raton).
# At time zero, 1.5 mM DEPC was added to a cuvette containing heparinase III (540 μg/mL) in sodium phosphate buffer, pH 7.0. The change in absorbance at 240 nm was monitored at time intervals for 10 min. The number of modified histidines was calculated using a ε=3200 M^−1cm^−1. At the beginning and end of the experiment, aliquots of heparinase III were withdrawn and tested for activity. Less than 5% of initial activity remained after 10 minutes incubation with DEPC.
# heparinase III [3] = target: T1, heparinase III; experiment: DEPC inactivation of heparinase III (UV 232 nm activity assay)
# Method: The activity of heparinase III was measured using a UV 232 nm assay similar to those reported for heparinase I and heparinase II (Godavarti, R., Cooney, C. L., Langer, R., and Sasisekharan, R. (1996) Biochemistry 35, 6846-52; Shriver, Z., Hu, Y., and Sasisekharan, R. (1998) J. Biol. Chem. 273, 10160-67; and Lohse, D. and Linhardt, R. J. (1992) J. Biol. Chem. 267, 781-87). Briefly, the increase in absorbance at 232 nm as a function of time was monitored under saturating substrate conditions. All assays were performed with heparan sulfate at a concentration of 2 mg/ml in 50 mM sodium phosphate, pH 7.6. The temperature for enzymatic activity measurements was kept constant at 35° C.
# (A) DEPC Inactivation of Heparinase III. At pH values ranging from 6.0 to 8.0, heparinase III (50 μg/mL) was incubated with DEPC in 50 mM sodium phosphate buffer at 25° C. The DEPC stock solution (6.9 M) was diluted with ethanol. […] At each pH, three reactions were run using different concentrations of DEPC, ranging from 50 μM to 2.5 mM. At fixed time intervals, 25 μL aliquots were withdrawn from the reaction mixtures for the UV 232 nm activity assay.
# The kinetics of DEPC inactivation of heparinase III was determined by plotting the natural log of percent activity versus an adjusted time term (to account for the decomposition of DEPC). Briefly, this adjusted time term (t′) was calculated according to the following equation: […]
# In this equation, k′ is the first order rate constant for DEPC hydrolysis and t is the measured time after addition of DEPC to the heparinase III solution. At each pH, the order of the reaction in DEPC was determined by plotting the observed rate constants of inactivation at each pH vs. log [DEPC]. The slope of this graph is n, the order of the reaction with respect to DEPC (Lundblad, R. (1995) Techniques in Protein Modification, CRC Press, Boca Raton).
# Heparinase III was incubated with 0.31 (□), 0.54 (●), 0.97 (◯), 1.5 (▴), 1.9 (Δ) mM DEPC at pH 6.5 and at 25° C. (shown in inset of FIG. 1). […]
# heparinase III [4] = target: T1, heparinase III; experiment: Reactivation of DEPC-modified enzyme with hydroxylamine; design: Activity (%): concentration or dose not given beside the values
# Method: (B) Reactivation of DEPC-Modified Enzyme with Hydroxylamine. Similar to what was completed with heparinase I and II (Godavarti, R., Cooney, C. L., Langer, R., and Sasisekharan, R. (1996) Biochemistry 35, 6846-52 and Shriver, Z., Hu, Y., and Sasisekharan, R. (1998) J. Biol. Chem. 273, 10160-67), heparinase III (50 μg/mL) was incubated with 0.97 mM DEPC, pH 6.5 until its enzymatic activity was reduced to 50% of its initial value. […] The reaction was incubated at room temperature for 6 hours. Aliquots were withdrawn every hour for the activity assay. The control mixture contained no DEPC but the same concentration of hydroxylamine to account for the loss of nonspecific activity. The ratio of the activity of the reaction mixture over the activity of the control was calculated to determine recovery of enzymatic activity.
compound,measurement,setting,value
"CCOC(=O)OC(=O)OCC [DEPC, diethylpyrocarbonate]",inactivation kinetics after preincubation with heparan sulfate,heparinase III [1],lower inactivation kinetics
same,histidines modified per enzyme molecule,"heparinase III [2]; 1.5 mM DEPC, pH 7.0, 10 minutes",1.8
same,remaining activity at 1500 µM,"heparinase III [2]; after 10 minutes incubation with 1.5 mM DEPC, pH 7.0, read-out: initial activity remaining",< 5%
same,inhibition of heparinase III,heparinase III [3],inhibit in a dose-dependent fashion
same,kinact/KI,"heparinase III [3]; 0.31-1.9 mM DEPC, pH 6.5, 25° C., read-out: second-order rate constant of inactivation (converted)",3.33 M⁻¹ s⁻¹
same,order of the reaction in DEPC (slope of kinact vs. log [DEPC]),heparinase III [3]; pH 6.5,1
same,activity at 970 µM,"heparinase III [4]; Time 0 min after hydroxylamine, 0.97 mM DEPC, pH 6.5",51%
same,Activity (%),heparinase III [4]; Time 30 min after hydroxylamine,60%
same,Activity (%),heparinase III [4]; Time 60 min after hydroxylamine,66%
same,Activity (%),heparinase III [4]; Time 90 min after hydroxylamine,72%
same,Activity (%),heparinase III [4]; Time 180 min after hydroxylamine,76%
same,Activity (%),heparinase III [4]; Time 240 min after hydroxylamine,78%
same,Activity (%),heparinase III [4]; Time 360 min after hydroxylamine,80%
same,reversibility of DEPC modification,heparinase III [4]; incubation with 300 mM hydroxylamine,90%
